Results reported in ChEMBL document CHEMBL3991601, “The target landscape of clinical kinase drugs” (Science, 2017).
The source made the active and inactive calls.

Tests used:
[1] = molecular target: T1, Mitogen-activated protein kinase kinase kinase 5 (Homo sapiens, UniProt Q99683)
T1 sequence (Q99683 whole entry): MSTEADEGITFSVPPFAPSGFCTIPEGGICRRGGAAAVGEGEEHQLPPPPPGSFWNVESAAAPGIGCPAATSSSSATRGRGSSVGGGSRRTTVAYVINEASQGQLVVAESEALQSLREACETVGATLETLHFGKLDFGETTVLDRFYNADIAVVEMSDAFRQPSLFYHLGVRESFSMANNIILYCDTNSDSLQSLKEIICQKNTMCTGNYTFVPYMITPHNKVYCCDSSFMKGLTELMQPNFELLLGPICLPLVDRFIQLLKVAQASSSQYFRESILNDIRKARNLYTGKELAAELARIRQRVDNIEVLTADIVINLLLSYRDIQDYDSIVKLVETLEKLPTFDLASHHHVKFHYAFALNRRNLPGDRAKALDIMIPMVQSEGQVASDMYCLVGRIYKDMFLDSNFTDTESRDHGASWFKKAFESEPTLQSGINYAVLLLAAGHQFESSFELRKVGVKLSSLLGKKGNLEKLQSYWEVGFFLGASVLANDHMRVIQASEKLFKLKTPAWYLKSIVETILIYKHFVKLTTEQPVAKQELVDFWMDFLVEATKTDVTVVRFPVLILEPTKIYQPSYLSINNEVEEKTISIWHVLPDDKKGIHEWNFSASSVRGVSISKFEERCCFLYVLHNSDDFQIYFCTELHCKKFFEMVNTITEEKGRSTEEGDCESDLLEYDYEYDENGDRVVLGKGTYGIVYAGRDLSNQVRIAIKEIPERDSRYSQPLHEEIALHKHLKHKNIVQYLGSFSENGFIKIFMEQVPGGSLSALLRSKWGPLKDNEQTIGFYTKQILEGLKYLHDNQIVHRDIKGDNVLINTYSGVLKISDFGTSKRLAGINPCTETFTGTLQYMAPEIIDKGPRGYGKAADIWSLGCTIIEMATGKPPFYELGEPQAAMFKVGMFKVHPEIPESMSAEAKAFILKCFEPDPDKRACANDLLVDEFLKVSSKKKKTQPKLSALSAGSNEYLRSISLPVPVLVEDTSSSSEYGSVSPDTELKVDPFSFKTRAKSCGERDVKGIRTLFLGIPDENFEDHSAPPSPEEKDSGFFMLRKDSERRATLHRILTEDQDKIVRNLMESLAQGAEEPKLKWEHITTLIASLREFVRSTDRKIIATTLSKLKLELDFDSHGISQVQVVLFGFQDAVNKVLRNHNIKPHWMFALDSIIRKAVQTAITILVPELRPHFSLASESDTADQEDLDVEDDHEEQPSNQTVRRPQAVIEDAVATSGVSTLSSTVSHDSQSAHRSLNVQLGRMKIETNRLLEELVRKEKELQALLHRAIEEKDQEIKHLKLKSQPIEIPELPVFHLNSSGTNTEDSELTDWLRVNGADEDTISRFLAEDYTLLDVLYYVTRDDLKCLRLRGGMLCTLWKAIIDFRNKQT

[2] = molecular target: T2, Discoidin domain-containing receptor 2 (Homo sapiens, UniProt Q16832)
T2 sequence (Q16832 whole entry): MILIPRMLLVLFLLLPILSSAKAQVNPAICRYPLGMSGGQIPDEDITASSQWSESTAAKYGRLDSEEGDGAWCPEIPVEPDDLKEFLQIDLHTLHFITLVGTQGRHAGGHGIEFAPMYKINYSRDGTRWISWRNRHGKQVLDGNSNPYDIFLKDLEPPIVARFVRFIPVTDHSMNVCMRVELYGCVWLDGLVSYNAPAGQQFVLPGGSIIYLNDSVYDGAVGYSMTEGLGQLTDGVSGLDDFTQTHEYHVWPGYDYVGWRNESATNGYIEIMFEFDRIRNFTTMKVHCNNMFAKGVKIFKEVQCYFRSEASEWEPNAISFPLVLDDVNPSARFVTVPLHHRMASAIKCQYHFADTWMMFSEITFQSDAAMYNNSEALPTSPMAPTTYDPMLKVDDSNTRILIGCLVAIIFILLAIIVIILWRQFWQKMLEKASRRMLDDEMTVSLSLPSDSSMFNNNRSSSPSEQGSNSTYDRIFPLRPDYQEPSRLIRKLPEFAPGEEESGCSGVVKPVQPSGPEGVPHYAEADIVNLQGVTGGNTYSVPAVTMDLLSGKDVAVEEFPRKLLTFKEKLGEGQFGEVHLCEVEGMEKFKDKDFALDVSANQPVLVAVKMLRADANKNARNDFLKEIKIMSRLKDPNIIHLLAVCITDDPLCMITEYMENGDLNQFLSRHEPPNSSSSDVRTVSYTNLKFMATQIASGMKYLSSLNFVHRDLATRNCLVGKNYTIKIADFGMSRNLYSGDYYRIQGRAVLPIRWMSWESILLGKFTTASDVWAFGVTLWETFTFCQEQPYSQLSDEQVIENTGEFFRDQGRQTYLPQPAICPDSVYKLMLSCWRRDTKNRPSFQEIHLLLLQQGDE

ADP/ATP translocase 3 = molecular target: T3, ADP/ATP translocase 3 (Homo sapiens, UniProt P12236)
T3 sequence (P12236 whole entry): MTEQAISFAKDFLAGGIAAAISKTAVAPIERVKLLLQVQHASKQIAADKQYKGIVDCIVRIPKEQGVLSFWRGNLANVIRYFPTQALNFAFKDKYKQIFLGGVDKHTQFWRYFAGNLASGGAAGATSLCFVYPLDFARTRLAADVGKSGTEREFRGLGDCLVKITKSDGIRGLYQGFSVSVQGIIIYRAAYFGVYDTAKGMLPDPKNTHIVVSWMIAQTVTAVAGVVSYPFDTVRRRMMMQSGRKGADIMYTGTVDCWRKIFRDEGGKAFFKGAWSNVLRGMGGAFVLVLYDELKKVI
Further: in the data inactive means no Kd found up to 30 µM.

| SMILES | Kd [1] | Kd [2] | Kd (ADP/ATP translocase 3) |
| --- | --- | --- | --- |
| O=c1[nH]c([C@@H]2CCCN2)nc2c1oc1ccc(Cl)cc12 | > 30 µM (inactive) | > 30 µM (inactive) | > 30 µM (inactive) |
| Cn1cc(-c2[nH]c3cc(NC(=O)[C@H](N)C4CCCCC4)cc4c3c2C=NNC4=O)cn1 | > 30 µM (inactive) | > 30 µM (inactive) | > 30 µM (inactive) |
| CCN1CCN(Cc2ccc(Nc3ncc(F)c(-c4cc(F)c5nc(C)n(C(C)C)c5c4)n3)nc2)CC1 [ABEMACICLIB] | > 30 µM (inactive) | > 30 µM (inactive) | > 30 µM (inactive) |
| Cc1c(NC(=O)OC[C@@H]2COCCN2)cn2ncnc(Nc3ccc4c(cnn4Cc4cccc(F)c4)c3)c12 [AC-480] | > 30 µM (inactive) | > 30 µM (inactive) | > 30 µM (inactive) |
| C=CCn1c(=O)c2cnc(Nc3ccc(N4CCN(C)CC4)cc3)nc2n1-c1cccc(C(C)(C)O)n1 [ADAVOSERTIB] | > 30 µM (inactive) | > 30 µM (inactive) | > 30 µM (inactive) |
| CN(C)C/C=C/C(=O)Nc1cc2c(Nc3ccc(F)c(Cl)c3)ncnc2cc1O[C@H]1CCOC1 [AFATINIB] | – | – | > 30 µM (inactive) |
| CCc1cc2c(cc1N1CCC(N3CCOCC3)CC1)C(C)(C)c1[nH]c3cc(C#N)ccc3c1C2=O [ALECTINIB] | > 30 µM (inactive) | > 30 µM (inactive) | > 30 µM (inactive) |
| COc1ccc2c(OCc3nnc4ccc(-c5ccccc5)nn34)ccnc2c1 [AMG-208] | > 30 µM (inactive) | > 30 µM (inactive) | > 30 µM (inactive) |
| S=C(NCc1ccc2c(c1)OCO2)N1CCN(c2ncnc3c2oc2ccccc23)CC1 [AMUVATINIB] | > 30 µM (inactive) | > 30 µM (inactive) | > 30 µM (inactive) |
| NC[C@@](O)(c1ccc(Cl)cc1)c1ccc(-c2cn[nH]c2)cc1 [AT-13148] | > 30 µM (inactive) | > 30 µM (inactive) | – |
| Cc1cc(Nc2nc(N[C@@H](C)c3ncc(F)cn3)ncc2Cl)n[nH]1 [AZD-1480] | > 30 µM (inactive) | > 30 µM (inactive) | > 30 µM (inactive) |
| CCN(CCCOc1ccc2c(Nc3cc(CC(=O)Nc4cccc(F)c4)n[nH]3)ncnc2c1)CCOP(=O)(O)O [BARASERTIB] | > 30 µM (inactive) | > 30 µM (inactive) | > 30 µM (inactive) |
| COc1ccc(-c2ccc3ncc4c(c3c2)n(-c2ccc(N3CCNCC3)c(C(F)(F)F)c2)c(=O)n4C)cn1 [BGT-226 FREE BASE] | > 30 µM (inactive) | > 30 µM (inactive) | > 30 µM (inactive) |
| COc1cccc(Nc2ncnn3ccc(CN4CC[C@@H](N)[C@H](O)C4)c23)c1 [BMS-690514] | > 30 µM (inactive) | > 30 µM (inactive) | > 30 µM (inactive) |
| C[C@@]1(C(=O)Nc2ccc(F)nc2)CCCN1c1nc(Nc2cc(C3CC3)n[nH]2)c2cccn2n1 [BMS-754807] | – | – | > 30 µM (inactive) |
| CCOc1ccn(-c2ccc(F)cc2)c(=O)c1C(=O)Nc1ccc(Oc2ccnc(N)c2Cl)c(F)c1 [BMS-777607] | > 30 µM (inactive) | 0.065 µM (active) | > 30 µM (inactive) |
| COc1cc2nccc(Oc3ccc(NC(=O)C4(C(=O)Nc5ccc(F)cc5)CC4)cc3)c2cc1OC [CABOZANTINIB] | > 30 µM (inactive) | 0.501 µM (active) | > 30 µM (inactive) |
| c1cc(OCCN2CCCCC2)cc(-c2n[nH]c3ccc(-c4nc[nH]n4)cc23)c1 [CC-401] | > 30 µM (inactive) | > 30 µM (inactive) | > 30 µM (inactive) |

| SMILES | Kd [1] | Kd [2] | Kd (ADP/ATP translocase 3) |
| --- | --- | --- | --- |
| COc1cc2c(Oc3ccc4[nH]c(C)cc4c3F)ncnc2cc1OCCCN1CCCC1 [CEDIRANIB] | – | – | > 30 µM (inactive) |
| CC1(COc2ccc3c(c2)ncn3-c2ccc3cccc(N4CCC(N)CC4)c3n2)COC1 [CRENOLANIB] | > 30 µM (inactive) | > 30 µM (inactive) | > 30 µM (inactive) |
| COc1cc2ncnc(Nc3ccc(F)c(Cl)c3)c2cc1NC(=O)/C=C/CN1CCCCC1 [DACOMITINIB ANHYDROUS] | > 30 µM (inactive) | > 30 µM (inactive) | > 30 µM (inactive) |
| Cn1c(=O)n(-c2ccc(C(C)(C)C#N)cc2)c2c3cc(-c4cnc5ccccc5c4)ccc3ncc21 [DACTOLISIB] | > 30 µM (inactive) | – | > 30 µM (inactive) |
| CC[C@@](C)(Nc1ccnc(-c2c[nH]c3ncccc23)n1)C(=O)NCC(F)(F)F [DECERNOTINIB] | > 30 µM (inactive) | > 30 µM (inactive) | > 30 µM (inactive) |
| CNC(=O)c1ccc(Nc2ncc(C(F)(F)F)c(NCc3nccnc3N(C)S(C)(=O)=O)n2)cc1 [DEFACTINIB] | > 30 µM (inactive) | > 30 µM (inactive) | > 30 µM (inactive) |
| O=S(=O)(c1cccc2cnccc12)N1CCCNCC1 [FASUDIL] | > 30 µM (inactive) | > 30 µM (inactive) | > 30 µM (inactive) |
| COc1cc(Nc2ncc(F)c(Nc3ccc4c(n3)N(COP(=O)(O)O)C(=O)C(C)(C)O4)n2)cc(OC)c1OC [FOSTAMATINIB] | > 30 µM (inactive) | > 30 µM (inactive) | > 30 µM (inactive) |
| CCc1nc(C(N)=O)c(Nc2ccc(N3CCC(N4CCN(C)CC4)CC3)c(OC)c2)nc1NC1CCOCC1 [GILTERITINIB] | > 30 µM (inactive) | > 30 µM (inactive) | 0.495 µM |
| Cc1c(Cn2c(C)nc3c(C(=O)O)cc(N4CCOCC4)cc32)cccc1C(F)(F)F [GSK-2636771] | > 30 µM (inactive) | > 30 µM (inactive) | > 30 µM (inactive) |
| O=S(=O)(c1cccc2c(O)nccc12)N1CCCNCC1 [HYDROXYFASUDIL] | > 30 µM (inactive) | > 30 µM (inactive) | > 30 µM (inactive) |
| C#Cc1cccc(Nc2ncnc3cc4c(cc23)OCCOCCOCCO4)c1 [ICOTINIB] | > 30 µM (inactive) | > 30 µM (inactive) | > 30 µM (inactive) |
| COc1cc2ncnc3c2cc1OCCCCCN(C)Cc1ccc(Br)cc1N3 [JNJ-26483327] | > 30 µM (inactive) | > 30 µM (inactive) | > 30 µM (inactive) |
| C[C@]1(O)C[C@@H](c2nc(-c3ccc4ccc(-c5ccccc5)nc4c3)c3c(N)nccn32)C1 [LINSITINIB] | > 30 µM (inactive) | > 30 µM (inactive) | > 30 µM (inactive) |
| CC1(C)CNc2cc(NC(=O)c3cccnc3NCc3ccncc3)ccc21 [MOTESANIB] | – | – | > 30 µM (inactive) |
| Cn1cnc2c(F)c(Nc3ccc(Br)cc3Cl)c(C(=O)NOCCO)cc21 [SELUMETINIB] | – | – | > 30 µM (inactive) |
| COc1cc2c(N3CCN(C(=O)Nc4ccc(OC(C)C)cc4)CC3)ncnc2cc1OCCCN1CCCCC1 [TANDUTINIB] | – | – | > 30 µM (inactive) |
